{"source": "patent US10542745B2", "about": "“Portable device for ex vivo stimulation of whole blood” (Hitachi Chemical Co., Ltd., priority 2010, dated 2020)", "type_in_all_cases": "cell-based", "key": {"[1]": {"tested_on": "blood", "assay": "Ex vivo stimulation of blood in strip wells, then 4° C. storage; ACTB, p21 and PUMA mRNA quantified", "settings": "for levels of both p21 and PUMA after 3 days of post-stimulation storage: stored at 4° C. for 3 days after stimulation, higher Ct values", "experimental": "(§1) Briefly, 96-well filterplates were assembled with leukocyte reduction membranes (Leukosorb; Pall) and placed over oligo(dT)-immobilized collection plates. 150 μL of 5 mmol/L Tris (pH 7.4) was applied to wet the filter membranes. After centrifugation at 120 g for 1 min at 4° C. to remove the Tris solution from the membranes, 50 μL of the stimulated whole blood samples was applied to each well and immediately centrifuged at 120 g for 2 min at 4° C. The wells were then washed once with 300 μL of phosphate-buffered saline. After centrifugation at 2000 g for 5 min at 4° C. to remove the saline solution, 60 μL of stock lysis buffer [5 g/L N-lauroylsarcosine, 4× standard saline citrate, 10 mmol/L Tris-HCl (pH 7.4), 1 mmol/L EDTA, 1 mL/L IGEPAL CA-630 (substitute of NP-40), 1.79 mol/L guanidine thiocyanate (all from Sigma)], supplemented with 10 mL/L 2-mercaptoethanol (Bio-Rad), 0.5 g/L proteinase K (Pierce), 0.1 g/L salmon sperm DNA (5 Prime Eppendorf/Brinkman), 0.1 g/L Escherichia coli tRNA (Sigma), 5 nmol/L each of the specific reverse primers, and 10^10 molecules/L of synthetic RNA34 (as external control), was added to each well of the filterplates. The plates were then incubated at 37° C. for 10 min, placed over oligo(dT)-immobilized collection microplates (GenePlate; RNAture), and centrifuged at 2000 g for 5 min at 4° C. After overnight storage at 4° C., the microplates were washed 3 times with 100 μL of plain lysis buffer and then 3 times with 150 μL of wash buffer [0.5 mol/L NaCl, 10 mmol/L Tris (pH 7.4) 1 mmol/L EDTA] at 4° C.\ncDNA was synthesized directly in each well by addition of 30 μL of buffer containing 1× reverse transcription buffer [50 mM KCl, 10 mM Tris-HCl (pH 8.3), 5.5 mM MgCl2, 1 nL/μL Tween 20], 1.25 mM each deoxynucleoside triphosphate, 4 units of rRNasin, and 80 U of MMLV reverse transcriptase (Promega; without primers) and incubation at 37° C. for 2 h. From each 30-μL reaction, 4 μL of cDNA was transferred directly to 384-well PCR plates, and 5 μL of TaqMan universal master mixture (Applied Biosystems) and 1 μL of 5 μM each of the forward and reverse primers for each mRNA or beta-actin were added. PCR was carried out in a PRISM 7900HT (Applied Biosystems), with 1 cycle of 95° C. for 10 min followed by 45 cycles of 95° C. for 30 s, 55° C. for 30 s, and 60° C. for 1 min. Each gene was amplified in separate wells. The cycle threshold (Ct), i.e., the cycle at which certain amounts of PCR products (based on fluorescence) were generated, was determined with analytical software (SDS; Applied Biosystems). The ΔCt were determined by subtracting each Ct of PHA-treated sample from each Ct of PBS-treated control sample, and the fold increase was calculated by 2^-ΔCt.\nIn order to evaluate the stability of samples after stimulation, blood was stimulated with DNR (10 μM in final concentration), AraC (100 μM in final concentration), or PBS in strip wells for 4 hours at 37° C., and then stored at 4° C. for 0-3 days. After the 4° C. incubation, the samples were stored in a −80° C. freezer until analysis. These experimental conditions are designed to represent the possible conditions a sample would be exposed to during transport in the portable incubation devices described herein. Three mRNAs (ACTB, p21, and PUMA) were quantified as described above."}, "[2]": {"tested_on": "blood", "assay": "IFNa2b stimulation of blood: vacuum tube vs multi-well strip, immediate vs delayed", "experimental": "as §1, with “After overnight storage at 4° C., the microplates were washed 3 times with 100 μL of plain lysis buffer and then 3 times with 150 μL of wash buffer [0.5 mol/L NaCl, 10 mmol/L Tris (pH 7.4) 1 mmol/L EDTA] at 4° C.” left out\ncDNA was synthesized directly in each well by addition of 30 μL of buffer containing 1× reverse transcription buffer [50 mM KCl, 10 mM Tris-HCl (pH 8.3), 5.5 mM MgCl2, 1 nL/μL Tween 20], 1.25 mM each deoxynucleoside triphosphate, 4 units of rRNasin, and 80 U of MMLV reverse transcriptase (Promega; without primers) and incubation at 37° C. for 2 h. […] The cycle threshold (Ct), i.e., the cycle at which certain amounts of PCR products (based on fluorescence) were generated, was determined with analytical software (SDS; Applied Biosystems). The ΔCt were determined by subtracting each Ct of PHA-treated sample from each Ct of PBS-treated control sample, and the fold increase was calculated by 2^-ΔCt. […]"}, "[3]": {"tested_on": "blood", "assay": "Time course of mRNA induction in blood at two incubation temperatures (ACTB, IL2, CXCL9)", "settings": "strip wells, 42° C. vs 37° C., 0-9 hours; FIGS. 12C and 12F", "experimental": "Briefly, 96-well filterplates were assembled with leukocyte reduction membranes (Leukosorb; Pall) and placed over oligo(dT)-immobilized collection plates. 150 μL of 5 mmol/L Tris (pH 7.4) was applied to wet the filter membranes. After centrifugation at 120 g for 1 min at 4° C. to remove the Tris solution from the membranes, 50 μL of the stimulated whole blood samples was applied to each well and immediately centrifuged at 120 g for 2 min at 4° C. The wells were then washed once with 300 μL of phosphate-buffered saline. […]\n(§2) cDNA was synthesized directly in each well by addition of 30 μL of buffer containing 1× reverse transcription buffer [50 mM KCl, 10 mM Tris-HCl (pH 8.3), 5.5 mM MgCl2, 1 nL/μL Tween 20], 1.25 mM each deoxynucleoside triphosphate, 4 units of rRNasin, and 80 U of MMLV reverse transcriptase (Promega; without primers) and incubation at 37° C. for 2 h. […] The cycle threshold (Ct), i.e., the cycle at which certain amounts of PCR products (based on fluorescence) were generated, was determined with analytical software (SDS; Applied Biosystems). The ΔCt were determined by subtracting each Ct of PHA-treated sample from each Ct of PBS-treated control sample, and the fold increase was calculated by 2^-ΔCt.\nThe time course of induction was also evaluated for two different incubation temperatures. […] ACTB, IL2, andCXCL9 mRNA were quantified."}, "[4]": {"tested_on": "blood", "assay": "Induction of IL2 or CXCL9 after incubation in the portable device vs controlled incubators", "settings": "FIGS. 13A and 13B", "experimental": "FIGS. 13A and 13B depict a comparison of the level of induction of 1L2 or CXCL9 when stimulated by PHA or IFN alpha and then incubated in the portable device disclosed herein or in controlled incubators (at a variety of temperatures). […] This again represents the degree of flexibility in temperatures and times that can be used (as disclosed above) to perform ex vivo stimulation of blood samples."}, "[5]": {"tested_on": "blood", "assay": "PHA stimulation of blood: PHA-containing collection tubes vs multi-well strip", "settings": "37° C. for 4 hours; FIGS. 9A-9D", "experimental": "Blood collection tubes were manufactured as described above. Three tubes were stored at 4° C. (tubes PHA 4C #1, #2, and #3 in FIG. 9) or room temperature (PHA RT in FIG. 9) for 20 days. Blood was then drawn into 6 tubes: a control heparin tube, a plain heparin tube, and 4 PHA-containing tubes. The blood from the control heparin tube was stimulated (by PBS or PHA) in micro-plate tube strips (3 wells each, 60 μL blood/well). The remaining 5 tubes were incubated at 37° C. for 4 hours. Various mRNA were quantified by using SYBR green real time PCR as described previously (Mitsuhashi M et al. Clin. Chem. 52:634-642, 2006). […]\nas §2"}, "[6]": {"settings": "DNR 10 μM or AraC 100 μM final, 4 hours at 37° C., vs PBS"}, "[7]": {"settings": "DNR 10 μM or AraC 100 μM final, 4 hours at 37° C., vs PBS, FIGS. 11A-11B"}, "[8]": {"settings": "blood stored at 4° C. for 6 hours before ex vivo stimulation"}}}
{"molecule": "Nc1ccn([C@@H]2O[C@H](CO)[C@@H](O)[C@@H]2O)c(=O)n1", "note": "[AraC, cytarabine]", "values": [{"measurement": "PUMA expression induction", "setting": "[1]; [6]", "value": "induced"}, {"measurement": "beta actin mRNA induction", "setting": "[1]; [7]", "value": "not induced"}, {"measurement": "levels of both p21 and PUMA after 3 days of post-stimulation storage", "setting": "[1]", "value": "appear to have decreased"}]}
{"molecule": "COc1cccc2c1C(=O)c1c(O)c3c(c(O)c1C2=O)C[C@@](O)(C(C)=O)C[C@@H]3O[C@H]1C[C@H](N)[C@H](O)[C@H](C)O1", "note": "[DNR, daunorubicin]", "values": [{"measurement": "PUMA expression induction", "setting": "[1]; [6]", "value": "induced"}, {"measurement": "beta actin mRNA induction", "setting": "[1]; [7]", "value": "not induced"}, {"measurement": "p21 mRNA induction", "setting": "[1]; [7]", "value": "significant induction"}, {"measurement": "levels of both p21 and PUMA after 3 days of post-stimulation storage", "setting": "[1]", "value": "appear to have decreased"}]}
{"molecule": "interferon alpha 2b [IFNa2b]", "values": [{"measurement": "performance of IFNa2b tube vs conventional IFNa2b stimulation in strip wells", "setting": "[2]; 2 hours at 37° C. immediately after blood draw, FIGS. 10A-10C", "value": "identical"}, {"measurement": "CXCL10 induction", "setting": "[2]; [8]", "value": "less induction"}, {"measurement": "GIP2 induction", "setting": "[2]; [8]", "value": "less induction"}, {"measurement": "CXCL-9 induction", "setting": "[3]", "value": "induced to a similar extent"}, {"measurement": "CXCL9 induction, portable device vs controlled incubators", "setting": "[4]", "value": "not significantly different"}]}
{"molecule": "phytohemaglutinin [PHA]", "values": [{"measurement": "mRNA (beta-actin, interferon gamma, interleukin 2, GM-CSF): stimulation in multi-well strip vs PHA-containing blood collection tubes", "setting": "[5]", "value": "no differences were detected"}, {"measurement": "IL2 induction, portable device vs controlled incubators", "setting": "[4]", "value": "not significantly different"}]}
